Patent US5204351A, “6-fluoro-3,5-dihydroxy carboxylic acids and derivatives thereof” (Hoechst Aktiengesellschaft, priority 1988, dated 1993)

Legend:
cholesterol = conditions: rats; cited from earlier work
[1] = tested on: cholesterol biosynthesis (in HEP-G2 cells); assay: Suppression or inhibition of HMG-CoA reductase in cell cultures of HEP-G2 cells: inhibition of cholesterol biosynthesis from 14C-acetate; type: cell-based; conditions: Homo sapiens, HepG2, monolayers, e.g. 1 hour preincubation, 3 hours with sodium 14C-acetate, Table 2
Method: 2. Suppression or inhibition of HMG-CoA reductase in cell cultures of HEP-G2 cells
Monolayers of HEP-G2 cells in the lipoprotein-free nutrient medium were preincubated with appropriate concentrations of the test substances for a defined time (for example 1 hour) and, after addition of the labeled precursor, for example sodium ^14 C-acetate, the incubation was continued (for example for 3 hours). An internal standard (^3 H-cholesterol) was added and then a portion of the cells underwent alkaline hydrolysis. The lipids from the hydrolyzed cells were extracted with chloroform/methanol. After addition of carrier cholesterol to this lipid mixture it was subjected to preparative thin-layer chromatography, the cholesterol band was visualized with iodine vapor and then isolated, and the amount of ^14 C-cholesterol formed from the ^14 C-precursor was determined by scintigraphy. Cell protein was determined in an aliquot of the cells so that it is possible to calculate the amount of ^14 C-cholesterol formed per unit time and per mg of cell protein. The inhibitory effect of the particular test product on the cholesterol biosynthesis by HEP-G2 cell cultures was obtained by comparing this figure with the amount of ^14 C-cholesterol formed per mg of cell protein and unit time in a culture treated in the same way but free of test substance.
Examination of substances for inhibition of cholesterol biosynthesis
in confluent cell cultures (monolayers) of HEP-G2 cells
The method described above was used to measure, for example, the following figures for the inhibition of cholesterol biosynthesis (in HEP-G2 cells) by the compounds according to the invention (the IC50 /mol/liter is that concentration of the compound which brings about 50% inhibition of cholesterol biosynthesis) (Tab. 2).

HMG-CoA reductase = target: T1, HMG-CoA reductase (Rattus norvegicus, UniProt P51639); assay: HMG CoA reductase activity in enzyme preparations (solubilized enzyme preparations from liver microsomes of cholestyramine-induced rats, 14C-HMG-CoA substrate); type: biochemical; conditions: solubilized rat liver microsomal enzyme; mean of 3 parallel samples; Table 1; read-out: IC50 for inhibition of HMG-CoA reductase
T1 construct: solubilized enzyme preparations from liver microsomes from rats; from tissue; host or cells: liver microsomes of cholestyramine-induced rats
T1 sequence (P51639 1-887): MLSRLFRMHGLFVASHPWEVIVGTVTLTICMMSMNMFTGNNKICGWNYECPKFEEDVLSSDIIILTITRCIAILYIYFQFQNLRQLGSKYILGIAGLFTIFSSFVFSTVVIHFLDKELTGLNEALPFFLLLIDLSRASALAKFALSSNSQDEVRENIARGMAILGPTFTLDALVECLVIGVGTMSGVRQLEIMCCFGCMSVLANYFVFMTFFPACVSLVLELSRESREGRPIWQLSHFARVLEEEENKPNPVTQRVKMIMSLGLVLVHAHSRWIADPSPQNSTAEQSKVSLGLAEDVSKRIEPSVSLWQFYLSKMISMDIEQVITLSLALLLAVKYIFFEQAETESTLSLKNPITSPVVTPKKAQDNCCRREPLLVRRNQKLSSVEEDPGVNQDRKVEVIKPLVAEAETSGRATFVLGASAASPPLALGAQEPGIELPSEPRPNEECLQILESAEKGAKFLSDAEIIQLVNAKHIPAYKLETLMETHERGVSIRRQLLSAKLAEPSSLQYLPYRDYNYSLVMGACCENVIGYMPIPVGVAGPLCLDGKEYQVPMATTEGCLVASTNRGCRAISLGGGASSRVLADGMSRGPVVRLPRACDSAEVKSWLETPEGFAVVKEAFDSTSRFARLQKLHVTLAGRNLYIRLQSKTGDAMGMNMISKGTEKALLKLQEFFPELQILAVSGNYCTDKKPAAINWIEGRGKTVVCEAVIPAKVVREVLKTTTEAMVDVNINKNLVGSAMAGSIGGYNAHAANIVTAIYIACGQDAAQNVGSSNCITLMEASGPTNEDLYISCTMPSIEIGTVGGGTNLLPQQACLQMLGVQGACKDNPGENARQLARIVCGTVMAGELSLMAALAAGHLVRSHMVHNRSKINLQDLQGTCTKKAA
Method: 1. HMG CoA reductase activity in enzyme preparations
The HMG-CoA reductase activity was measured on solubilized enzyme preparations from liver microsomes from rats which, after a changeover in the day/night rhythm, had been induced with cholestyramine (®Cuemid).
The substrate used was (S,R) ^14 C-HMG-CoA, and the concentration of NADPH was maintained constant during the incubation by a regenerating system. ^14 C-Mevalonate was separated from the substrate and other products (e.g. ^14 C-HMG) by column elution, with the elution profile of each individual sample being determined.
Permanent inclusion of ^3 H-mevalonate was dispensed with because the determination was for relative data on the inhibitory effect. In each test series the enzyme-free control, the enzyme-containing normal mixture (=100%) and those with added product, final concentration 10^-5 to 10^-9 M, were treated together. Each individual value was formed as the mean of 3 parallel samples. The significance of the differences between means for product-free and product-containing samples was assessed using the t test.
The method described above was used to measure, for example, the following figures for the inhibition of HMG-CoA reductase by the compounds according to the invention [IC50 /mol/liter means the molar concentration of the compound per liter necessary for 50% inhibition]: […]

IC50 (HMG-CoA reductase) [nM] | SMILES | cholesterol-lowering action (cholesterol) | IC50 [1] [nM]
– | CC(O)(CC(=O)O)CC(=O)O [3-Hydroxy-3-methylglutaric acid] | significant cholesterol-lowering action | –
2.9 | CC(C)c1nc(-c2ccc(F)cc2)nc(-c2ccc(F)cc2)c1/C=C(\F)[C@@H]1C[C@@H](O)CC(=O)O1 [10 a] | – | 19
9 | CC(C)c1nc(-c2ccccc2)cc(-c2ccc(F)cc2)c1/C=C(\F)[C@@H]1C[C@@H](O)CC(=O)O1 [10 b] | – | 4.6
1.8 | CC(C)c1nc(-c2ccc(F)cc2)c(/C=C(\F)[C@@H]2C[C@@H](O)CC(=O)O2)c(C(C)C)n1 [10 g] | – | 2.5
– | CC(C)c1nc(-c2ccc(F)cc2)nc(-c2ccc(F)cc2)c1C=C(F)C(O)CC(O)CC(=O)O (stereo not drawn) [11 a] | – | 18
– | CC(C)c1nc(-c2ccccc2)cc(-c2ccc(F)cc2)c1/C=C(\F)[C@@H](O)C[C@@H](O)CC(=O)O [11 b] | – | 20
